Experimental data taken from patent US10064861B2, “Macrocyclic pyridazinone derivatives” (Merck Patent GmbH, priority 2013, dated 2018).

Assays:
IRAK4 = IRAK4 (Homo sapiens (Human), UniProt Q9NWZ3); assay: IRAK4 enzymatic assay; format: biochemical; conditions: His-TEV-IRAK4, ATP 2 μM, STK1-biotin peptide 300 nM, 3 hours at 30° C.
Protocol: IRAK4 is a human purified recombinant enzyme (His-TEV-IRAK1 (194-712) IRAK4 hydrolyses ATP, autophosphorylates and phosphorylates a Serine/Threonine generic peptidic substrate (STK: 61ST1BLC from CisBio International based in Bagnols/Cèze FR).
Measurement of IRAK-4 inhibition is performed in streptavidin coated 384 well FlashPlate (PerkinElmer #SMP410A). His-TEV-IRAK4 (20 ng/well), ATP (2 μM, [^33P]ATP 0.25 μCi/well), STK1-biotin peptide (300 nM) and compounds in DMSO (range of concentrations from 20 μM to 1 nM) or controls (2% DMSO) are incubated for 3 hours at 30° C. in assay buffer: Hepes pH 7.0 50 mM, Fatty acid-free BSA 0.1%, Dithiothreitol DTT 2 mM, MgCl2 10 mM, EGTA 0.5 mM, Tween-20 0.01%, MnCl2 5 mM.
Kinase reaction is stopped by addition of EDTA. Supernatant is discarded, plates are washed three times with 150 mM NaCl and radioactivity is then measured in a Microbeta Trilux reader.

IRAK1 = IRAK1 (Homo sapiens (Human), UniProt P51617); assay: IRAK1 enzymatic assay; format: biochemical; conditions: His-TEV-IRAK-1, ATP 1 μM, 3 hours at 30° C.
IRAK1, sequence (P51617 194-712): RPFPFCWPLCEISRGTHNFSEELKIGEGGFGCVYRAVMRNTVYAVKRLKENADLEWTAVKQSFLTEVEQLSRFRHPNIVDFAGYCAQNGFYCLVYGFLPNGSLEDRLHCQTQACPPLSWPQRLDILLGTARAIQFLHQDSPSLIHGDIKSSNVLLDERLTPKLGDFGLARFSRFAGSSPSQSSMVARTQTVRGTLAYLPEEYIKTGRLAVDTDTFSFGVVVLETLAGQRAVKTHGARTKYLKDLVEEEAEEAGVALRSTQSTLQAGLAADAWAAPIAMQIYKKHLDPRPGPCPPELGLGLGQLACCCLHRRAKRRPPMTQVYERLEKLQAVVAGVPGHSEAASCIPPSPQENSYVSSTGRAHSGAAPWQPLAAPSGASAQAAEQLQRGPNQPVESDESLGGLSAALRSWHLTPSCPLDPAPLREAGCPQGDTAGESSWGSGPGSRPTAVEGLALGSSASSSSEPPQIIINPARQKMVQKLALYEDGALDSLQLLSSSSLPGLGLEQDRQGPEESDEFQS
Protocol: IRAK1 is a human purified recombinant enzyme (His-TEV-IRAK1 (194-712)) In this assay, IRAK-1 hydrolyses ATP and autophosphorylates.
Measurement of IRAK-1 inhibition is performed in streptavidin coated 384 well FlashPlate (PerkinElmer #SMP410A).
His-TEV-IRAK-1 (15 ng/well), ATP (1 μM, [^33P]ATP 0.25 μCi/well) and compounds in DMSO (range of concentrations from 20 μM to 1 nM) or controls (2% DMSO) are incubated for 3 hours at 30° C. in assay buffer: Hepes pH 7.0 50 mM, Fatty acid-free BSA 0.1%, Dithiothreitol DTT 2 mM, MgCl2 10 mM, EGTA 0.5 mM, Triton-X-100 0.01%. Kinase reaction is stopped by addition of EDTA. Supernatant is discarded, plates are washed three times with 150 mM NaCl and radioactivity is then measured in a Microbeta Trilux reader.

[1] = system: TLR7 induced IL-6 secretion in human mononuclear cells (PBMC's); assay: TLR7 induced IL-6 in human PBMC's; format: cell-based; conditions: TLR7 specific ligand 2 uM overnight, IL-6 AlphaLISA
Protocol: TLR7 Induced IL-6 in Human PBMC's
Human PBMC assay is used as one of the functional assay to monitor the activity of IRAK1 and IRAK4 small molecule inhibitors on TLR7 induced IL-6 secretion in human mononuclear cells (PBMC's). Human PBMCs are prepared from buffy coats (whole blood enriched with leukocytes and platelets) obtained from healthy volunteers used either fresh or frozen are plated in assay media (RPMI+2% P/S/L-glu+10% HI-FBS) and pre-treated with compounds in DMSO/media (range of concentrations from 25 μM to 0.4 nM) or controls (0.25% DMSO) for 30 minutes at 37° C. in assay media. Following pre-treatment with IRAK1 and IRAK4 inhibitors, PBMC's are stimulated with TLR7 specific ligand (2 uM) overnight (16-18 hrs) at 37° C. After incubation supernatant is transferred to 384 well PE AlphaPlate-384 (6005350) and IL-6 is quantified using Perkin Elmer IL-6 Alpha LISA kit (AL223C). Plates are read on an Envision® plate reader with Alpha Technology®.

IRAK4, sequence (Q9NWZ3 whole entry): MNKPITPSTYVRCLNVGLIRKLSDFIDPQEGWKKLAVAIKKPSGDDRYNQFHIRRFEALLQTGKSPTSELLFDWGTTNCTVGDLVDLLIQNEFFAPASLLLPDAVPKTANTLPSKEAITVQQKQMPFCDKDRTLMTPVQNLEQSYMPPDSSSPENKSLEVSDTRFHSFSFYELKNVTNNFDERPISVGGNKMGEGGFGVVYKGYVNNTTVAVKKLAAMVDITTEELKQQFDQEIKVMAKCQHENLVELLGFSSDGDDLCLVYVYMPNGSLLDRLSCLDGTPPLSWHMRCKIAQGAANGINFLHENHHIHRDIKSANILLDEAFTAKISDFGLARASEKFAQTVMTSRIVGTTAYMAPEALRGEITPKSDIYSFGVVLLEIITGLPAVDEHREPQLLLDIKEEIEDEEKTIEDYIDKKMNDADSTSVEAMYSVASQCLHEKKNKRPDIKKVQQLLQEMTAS

Row | Structure (SMILES) | IC50 (IRAK4) | IC50 (IRAK1) | IC50 [1]
1 | Cc1cc(=O)n2nc1-c1cccc(c1)Cn1c(nc3ccccc31)NC(=O)c1cccc(c1)C2 [Compound 4, 28-Methyl-8,15,17,25,29-pentaazahexacyclo[23.3.1.1^2,61^19,230^8,160^9,14]hentriaconta-1(29),2(31),3,5,9(14),10,12,15,19(30),20,22,27-dodecaene-18,26-dione] | 100 to 1000 nM | < 100 nM | –
2 | O=C1Nc2nc3cc(F)c(F)cc3n2Cc2cccc(c2)-c2ccc(=O)n(n2)Cc2cccc1c2 [Compound 6, 11,12-difluoro-8,15,17,25,29-pentaazahexacyclo[23.3.1.1^2,6.1^9,23.0^8,16.0^9,14]hentriaconta-1(29),2(31),3,5,9(14),10,12,15,19(30),20,22,27-dodecaene-18,26-dione] | 100 to 1000 nM | < 100 nM | –
3 | O=C1Nc2nc3ccccc3n2Cc2cncc(c2)-c2ccc(=O)n(n2)Cc2cccc1c2 [Compound 7, 4,8,15,17,25,29-hexaazahexacyclo[23.3.1.1^2,6.1^19,23.0^8,16.0^9,14]hentriaconta-1(29),2(31),3,5,9(14),10,12,15,19(30),20,22,27-dodecaene-18,26-dione] | < 100 nM | – | < 100 nM
4 | O=C1Nc2nc3ccccc3n2CCOc2cccc(c2)-c2ccc(=O)n(n2)Cc2cccc1c2 [Compound 9, 26-oxa-6,14,16,23,33-pentaazahexacyclo[25.3.1.12,6,1^8,12}0^15,23.0^17,22]tritriaconta-1(31),2(33),3,8,10,12(32),15,17,19,21,27,29-dodecaene-5,13-dione] | 100 to 1000 nM | < 100 nM | –
5 | O=C1Nc2nc3ccccc3n2Cc2ccc(F)c(c2)-c2ccc(=O)n(n2)Cc2cccc1c2 [Compound 10, 3-Fluoro-8,15,17,25,29-pentaazahexacyclo[23.3.1.1^2,61^19,230^8,160^9,14]hentriaconta-1(29),2(31),3,5,9(14),10,12,15,19(30),20,22,27-dodecaene-18,26-dione] | 100 to 1000 nM | < 100 nM | –
6 | Cc1cc(=O)n2nc1-c1cccc(c1)CCn1c(nc3ccccc31)NC(=O)c1cccc(c1)C2 [Compound 11, 3-methyl-6,14,16,23,32-pentaazahexacyclo[24.3.1.1^2,6.1^8,12.0^15,23.017,22]dotriaconta-1(30),2(32),3,8,10,12(31),15,17,19,21,26,28-dodecaene-5,13-dione] | < 100 nM | < 100 nM | –
7 | O=C1Nc2nc3ccccc3n2Cc2ccc(Cl)c(c2)-c2ccc(=O)n(n2)Cc2cccc1c2 [Compound 13, 3-chloro-8,15,17,25,29-pentaazahexacyclo[23.3.1.1^2,6.1^19,23.0^8,16.0^9,14]hentriaconta-1(29),2(31),3,5,9(14),10,12,15,19(30),20,22,27-dodecaene-18,26-dione] | 100 to 1000 nM | < 100 nM | –
8 | O=C1Nc2nc3ccccc3n2CCn2cc(cn2)-c2ccc(=O)n(n2)Cc2cccc1c2 [Compound 14, 4,6,8,15,17,25,29-heptaazahexacyclo[23.3.1.12,5.119,23.08,16.09,14]hentriaconta-1(29),2(31),3,9(14),10,12,15,19(30),20,22,27-undecaene-18,26-dione] | – | – | 100 to 1000 nM
9 | COc1ccc2cc1-c1ccc(=O)n(n1)Cc1cccc(c1)C(=O)Nc1nc3ccccc3n1C2 [Compound 15, 3-methoxy-8,15,17,25,29-pentaazahexacyclo[23.3.1.1^2,6.1^19,23.0^8,16.0^9,14]hentriaconta-1(29),2(31),3,5,9(14),10,12,15,19(30),20,22,27-dodecaene-18,26-dione] | < 100 nM | < 100 nM | –
10 | COc1ccc2cc1Cn1c(nc3ccccc31)NC(=O)c1cccc(c1)Cn1nc-2ccc1=O [Compound 19, 5-methoxy-8,15,17,25,29-pentaazahexacyclo[23.3.1.1^2,6.1^19,23.0^8,16.0^9,14]hentriaconta-1(29),2(31),3,5,9(14),10,12,15,19(30),20,22,27-dodecaene-18,26-dione] | < 100 nM | 100 to 1000 nM | –
11 | COc1cc2nc3n(c2cc1OC)CCn1cc(cn1)-c1ccc(=O)n(n1)Cc1cccc(c1)C(=O)N3 [Compound 22] | < 100 nM | < 100 nM | –
12 | NCCc1ccc2c(c1)nc1n2Cc2cccc(c2)-c2ccc(=O)n(n2)Cc2cccc(c2)C(=O)N1 [Compound 23] | < 100 nM | < 100 nM | –
13 | CC1c2cccc(c2)C(=O)Nc2nc3ccccc3n2Cc2cccc(c2)-c2ccc(=O)n1n2 (stereo not drawn) [Compound 24] | < 100 nM | < 100 nM | –
14 | Cc1cc(=O)n2nc1-c1cnn(c1)CCn1c(nc3ccccc31)NC(=O)c1cccc(c1)C2 [Compound 26] | < 100 nM | < 100 nM | –
15 | O=C1Nc2nc3cc(CN4CCOCC4)ccc3n2Cc2cccc(c2)-c2ccc(=O)n(n2)Cc2cccc1c2 [Compound 27] | < 100 nM | < 100 nM | –
16 | Cc1nn2c(C)c1-c1ccc(=O)n(n1)Cc1cccc(c1)C(=O)Nc1nc3ccccc3n1CC2 [Compound 28] | 100 to 1000 nM | 100 to 1000 nM | –
17 | COc1ccc2c(c1)nc1n2Cc2cccc(c2)-c2ccc(=O)n(n2)Cc2cccc(c2)C(=O)N1 [Compound 29] | < 100 nM | < 100 nM | –

Now from value to molecule, other results behind:

Row | IC50 (IRAK4) | IC50 (IRAK1) | Structure (SMILES) | IC50 [1]
18 | < 100 nM | < 100 nM | O=C1Nc2nc3ccccc3n2C[C@H](O)[C@@H]2CCCN(C2)c2ccc(=O)n(n2)Cc2cccc1c2 (stereo in doubt) [Compound 32a, 25-hydroxy-1,6,14,16,23,32-hexaazahexacyclo[24.3.1.1^2,6.1^8,12.0^15,23.0^17,22]dotriaconta-2(32),3,8(31),9,11,15,17(22),18,20-nonaene-5,13-dione] | 100 to 1000 nM
19 | < 100 nM | < 100 nM | Cc1cc(=O)n2nc1OCCC(O)Cn1c(nc3ccccc31)NC(=O)c1cccc(c1)C2 (stereo not drawn) [Compound 30] | –
20 | 100 to 1000 nM | < 100 nM | O=C1Nc2nc3cc(O)ccc3n2Cc2cccc(c2)-c2ccc(=O)n(n2)Cc2cccc1c2 [Compound 31] | –
21 | < 100 nM | < 100 nM | COc1ccc2c(c1)nc1n2CCn2cc(cn2)-c2ccc(=O)n(n2)Cc2cccc(c2)C(=O)N1 [Compound 33] | –
22 | < 100 nM | < 100 nM | O=C1Nc2nc3ccccc3n2C/C=C\COc2ccc(=O)n(n2)Cc2cccc1c2 [Compound 34] | –
23 | < 100 nM | < 100 nM | COc1ccc2c(c1)nc1n2CC(O)CCOc2ccc(=O)n(n2)Cc2cccc(c2)C(=O)N1 (stereo not drawn) [Compound 35] | –
24 | < 100 nM | < 100 nM | CC[C@H]1c2cccc(c2)C(=O)Nc2nc3ccccc3n2Cc2cccc(c2)-c2ccc(=O)n1n2 [Compound 36a, 24-ethyl-8,15,17,26,29-pentaazahexacyclo[23.3.1.1^2,6.1^19,23.0^8,16.0^9,14]hentriaconta-1(29),2(31),3,5,9(14),10,12,15,19,21,23(30),27-dodecaene-18,26-dione] | –
25 | 100 to 1000 nM | < 100 nM | CC[C@@H]1c2cccc(c2)C(=O)Nc2nc3ccccc3n2Cc2cccc(c2)-c2ccc(=O)n1n2 [Compound 36b, 24-ethyl-8,15,17,26,29-pentaazahexacyclo[23.3.1.1^2,6.1^19,23.0^8,16.0^9,14]hentriaconta-1(29),2(31),3,5,9(14),10,12,15,19,21,23(30),27-dodecaene-18,26-dione] | –
26 | < 100 nM | < 100 nM | COc1ccc2cc1CCn1c(nc3ccccc31)NC(=O)c1cccc(c1)Cn1nc-2ccc1=O [Compound 37] | –
27 | < 100 nM | < 100 nM | O=C1Nc2nc3ccccc3n2CCc2cc(ccc2O)-c2ccc(=O)n(n2)Cc2cccc1c2 [Compound 38] | –
